Literature values in PMC5669518 (Biochemistry and Biophysics Reports, 2015).

Test system: NEU2
Settings: active form of oseltamivir; ref [16], [17]

CCOC(=O)C1=C[C@@H](OC(CC)CC)[C@H](NC(C)=O)[C@@H](N)C1 [oseltamivir]
Inhibitory effect on NEU2: does not exhibit the inhibitory effect
